# According to ChEMBL document CHEMBL1909046, “DrugMatrix in vitro pharmacology data”:
# Columns and labels:
# [1] = molecular target: T1, Cytochrome P450 1A2 (Homo sapiens, UniProt P05177); conditions: bti-tn-5b1-4; further: in other assays of this panel Not Active means under 50% inhibition at 10 µM
# T1 sequence (P05177 whole entry): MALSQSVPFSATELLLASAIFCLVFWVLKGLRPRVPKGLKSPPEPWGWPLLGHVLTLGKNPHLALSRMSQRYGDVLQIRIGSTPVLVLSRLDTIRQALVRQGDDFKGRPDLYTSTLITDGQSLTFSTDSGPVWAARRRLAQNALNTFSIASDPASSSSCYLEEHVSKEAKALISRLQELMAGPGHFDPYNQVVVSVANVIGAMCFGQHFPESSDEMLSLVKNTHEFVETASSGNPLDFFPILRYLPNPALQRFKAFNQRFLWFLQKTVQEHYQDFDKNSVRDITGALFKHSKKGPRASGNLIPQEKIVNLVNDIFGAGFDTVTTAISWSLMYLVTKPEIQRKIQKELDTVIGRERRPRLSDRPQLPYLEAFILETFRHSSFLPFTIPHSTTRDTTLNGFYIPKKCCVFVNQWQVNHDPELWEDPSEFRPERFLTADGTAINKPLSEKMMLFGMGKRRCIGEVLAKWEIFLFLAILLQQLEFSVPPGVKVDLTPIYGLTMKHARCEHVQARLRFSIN
# [2] = molecular target: T2, Thromboxane-A synthase (Homo sapiens, UniProt P24557); assay: biochemical; assay type: tissue-based, Platelet; conditions: platelet;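 further: enzyme inhibition assay with PGH2 supplied as substrate; in other assays of this panel Not Active means under 50% inhibition at 10 µM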
# T2 sequence (P24557 whole entry): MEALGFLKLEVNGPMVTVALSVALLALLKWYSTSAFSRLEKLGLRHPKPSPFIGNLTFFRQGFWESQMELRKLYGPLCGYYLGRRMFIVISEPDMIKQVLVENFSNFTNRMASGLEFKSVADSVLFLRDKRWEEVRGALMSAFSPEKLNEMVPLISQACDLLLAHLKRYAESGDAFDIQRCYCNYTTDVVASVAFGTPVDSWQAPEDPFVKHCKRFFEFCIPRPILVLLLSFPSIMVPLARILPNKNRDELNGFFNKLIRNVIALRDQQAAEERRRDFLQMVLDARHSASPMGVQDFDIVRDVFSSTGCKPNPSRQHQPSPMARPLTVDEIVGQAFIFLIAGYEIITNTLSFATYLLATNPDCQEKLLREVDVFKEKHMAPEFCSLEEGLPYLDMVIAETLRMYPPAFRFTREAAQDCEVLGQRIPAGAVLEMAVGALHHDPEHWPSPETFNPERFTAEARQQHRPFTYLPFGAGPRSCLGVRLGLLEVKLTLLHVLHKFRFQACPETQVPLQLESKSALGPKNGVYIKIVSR
# [3] = molecular target: cGMP-specific 3',5'-cyclic phosphodiesterase (Homo sapiens, UniProt O76074); assay: DRUGMATRIX: Phosphodiesterase PDE5 enzyme inhibition (substrate: [3H]cGMP + cGMP); assay type: tissue-based, Platelet; conditions: platelet; Not Active = under 50% inhibition at 10 µM
# [4] = molecular target: T3, C-X-C chemokine receptor type 2 (Homo sapiens, UniProt P25025); assay type: cell membranes, Membrane; conditions: cho-k1; further: in other assays of this panel Not Active means under 50% inhibition at 10 µM
# T3 sequence (P25025 whole entry): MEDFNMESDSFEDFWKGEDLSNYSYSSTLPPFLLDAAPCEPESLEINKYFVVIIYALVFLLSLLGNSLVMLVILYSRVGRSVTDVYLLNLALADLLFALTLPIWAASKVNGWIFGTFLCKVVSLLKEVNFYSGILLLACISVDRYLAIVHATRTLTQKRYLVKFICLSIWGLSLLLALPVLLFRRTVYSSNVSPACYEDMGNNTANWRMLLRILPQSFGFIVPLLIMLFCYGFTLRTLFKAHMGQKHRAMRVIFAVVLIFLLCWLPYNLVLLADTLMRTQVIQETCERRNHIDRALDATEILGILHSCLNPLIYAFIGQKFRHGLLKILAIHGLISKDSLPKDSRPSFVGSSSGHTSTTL
# [5] = molecular target: Melanocortin receptor 3 (Homo sapiens, UniProt P41968); assay type: cell membranes, Membrane; conditions: hek293; further: in other assays of this panel Not Active means under 50% inhibition at 10 µM
# Sequence of Melanocortin receptor 3 (P41968 whole entry): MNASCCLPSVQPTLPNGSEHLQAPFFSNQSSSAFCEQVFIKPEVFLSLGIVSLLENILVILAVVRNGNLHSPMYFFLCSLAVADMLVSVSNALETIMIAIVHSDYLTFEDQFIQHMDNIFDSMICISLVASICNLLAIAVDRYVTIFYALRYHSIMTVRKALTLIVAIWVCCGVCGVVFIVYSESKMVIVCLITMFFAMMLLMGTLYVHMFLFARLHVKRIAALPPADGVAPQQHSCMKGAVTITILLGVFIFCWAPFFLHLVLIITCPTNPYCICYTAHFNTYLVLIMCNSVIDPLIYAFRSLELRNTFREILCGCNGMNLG
# [6] = molecular target: Carbonic anhydrase 2 (Homo sapiens, UniProt P00918); assay: DRUGMATRIX: Carbonic Anhydrase II enzyme inhibition (substrate: 4-Nitrophenyl acetate (4-NPA)); assay type: tissue-based, Erythrocyte; conditions: Not Active = under 50% inhibition at 10 µM
# [7] = molecular target: T4, Progesterone receptor (Bos taurus, UniProt Q690N0); assay: DRUGMATRIX: Progesterone radioligand binding (ligand: [3H] R-5020); assay type: tissue-based, Uterus; conditions: Not Active = under 50% inhibition at 10 µM
# T4 sequence (Q690N0 whole entry): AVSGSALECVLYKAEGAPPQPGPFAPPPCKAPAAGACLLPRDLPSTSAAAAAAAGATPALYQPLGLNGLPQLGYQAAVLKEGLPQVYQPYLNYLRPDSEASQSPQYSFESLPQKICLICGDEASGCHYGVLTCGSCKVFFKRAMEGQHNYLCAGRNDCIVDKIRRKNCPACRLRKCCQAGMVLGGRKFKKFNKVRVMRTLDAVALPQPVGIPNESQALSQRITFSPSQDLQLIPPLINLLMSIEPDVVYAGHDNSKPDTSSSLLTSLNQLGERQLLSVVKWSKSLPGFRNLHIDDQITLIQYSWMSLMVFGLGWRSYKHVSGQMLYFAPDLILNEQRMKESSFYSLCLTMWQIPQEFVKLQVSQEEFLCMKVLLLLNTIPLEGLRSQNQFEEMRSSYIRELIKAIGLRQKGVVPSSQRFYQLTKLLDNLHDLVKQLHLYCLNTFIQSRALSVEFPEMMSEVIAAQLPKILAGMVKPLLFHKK
molecule,measurement,setting,value
NC(=O)N1c2ccccc2CC(=O)c2ccccc21 [OXCARBAZEPINE],IC50,[1],Not Active
same,Ki,[1],Not Active
same,IC50,[2],Not Active
same,IC50,[3],Not Active
same,IC50,[4],Not Active
same,IC50,[5],Not Active
same,IC50,[6]; erythrocyte,Not Active
same,IC50,[7],Not Active
COc1ccnc(C[S+]([O-])c2nc3ccc(OC(F)F)cc3[nH]2)c1OC (stereo unspecified) [PANTOPRAZOLE],IC50,[1],Not Active
same,Ki,[1],Not Active
same,IC50,[2],Not Active
same,IC50,[3],Not Active
same,IC50,[4],Not Active
same,IC50,[5],Not Active
same,IC50,[6]; erythrocyte,Not Active
same,IC50,[7],Not Active
N=C(N)c1ccc(OCCCCCOc2ccc(C(=N)N)cc2)cc1 [PENTAMIDINE],IC50,[1],Not Active
same,Ki,[1],Not Active
same,IC50,[2],Not Active
same,IC50,[3],Not Active
same,IC50,[4],Not Active
same,IC50,[5],Not Active
same,IC50,[6]; erythrocyte,Not Active
same,IC50,[7],Not Active
NNCCc1ccccc1 [PHENELZINE],IC50,[1],Not Active
same,Ki,[1],Not Active
same,IC50,[2],Not Active
same,IC50,[3],Not Active
same,IC50,[4],Not Active
same,IC50,[5],Not Active
same,IC50,[6]; erythrocyte,Not Active
same,IC50,[7],Not Active
CCc1ccc(CCOc2ccc(CC3SC(=O)NC3=O)cc2)nc1 (stereo unspecified) [PIOGLITAZONE],IC50,[1],Not Active
same,Ki,[1],Not Active
same,IC50,[2],Not Active
same,IC50,[3],Not Active
same,IC50,[4],Not Active
same,IC50,[5],Not Active
same,IC50,[6]; read-out: IC50,114 nM
same,IC50,[7],Not Active
CCCNC(C)C(=O)Nc1ccccc1C (stereo unspecified) [PRILOCAINE],IC50,[1],Not Active
same,Ki,[1],Not Active
same,IC50,[2],Not Active
same,IC50,[3],Not Active
same,IC50,[4],Not Active
same,IC50,[5],Not Active
same,IC50,[6]; erythrocyte,Not Active
same,IC50,[7],Not Active
CCN(CC)CCNC(=O)c1ccc(N)cc1 [PROCAINAMIDE],IC50,[1],Not Active
same,Ki,[1],Not Active
same,IC50,[2],Not Active
same,IC50,[3],Not Active
same,IC50,[4],Not Active
same,IC50,[5],Not Active
same,IC50,[6]; erythrocyte,Not Active
same,IC50,[7],Not Active
CCN(CC)CCCC(C)Nc1c2ccc(Cl)cc2nc2ccc(OC)cc12 (stereo unspecified) [QUINACRINE],IC50,[1],Not Active
same,Ki,[1],Not Active
same,IC50,[2],Not Active
same,IC50,[3],Not Active
same,IC50,[4],Not Active
same,IC50,[5],Not Active
same,IC50,[6]; erythrocyte,Not Active
same,IC50,[7],Not Active
C[C@]12C=CC(=O)C=C1CC[C@H]1[C@@H]3C[C@@H](O)[C@](O)(C(=O)CO)[C@@]3(C)C[C@H](O)[C@@]12F [TRIAMCINOLONE],IC50,[1],Not Active
same,Ki,[1],Not Active
same,IC50,[2],Not Active
same,IC50,[3],Not Active
same,IC50,[4],Not Active
same,IC50,[5],Not Active
same,IC50,[6]; erythrocyte,Not Active
same,IC50,[7],Not Active
CC[C@]1(O)C[C@@H]2CN(CCc3c([nH]c4ccccc34)[C@@](C(=O)OC)(c3cc4c(cc3OC)N(C)[C@H]3[C@@](O)(C(N)=O)[C@H](O)[C@]5(CC)C=CCN6CC[C@]43[C@@H]65)C2)C1 [VINDESINE],IC50,[1],Not Active
same,Ki,[1],Not Active
same,IC50,[2],Not Active
same,IC50,[3],Not Active
same,IC50,[4],Not Active
same,IC50,[5],Not Active
same,IC50,[6]; erythrocyte,Not Active
same,IC50,[7],Not Active
CCN(C(C)=O)c1cccc(-c2ccnc3c(C#N)cnn23)c1 [ZALEPLON],IC50,[1],Not Active
same,Ki,[1],Not Active
same,IC50,[2],Not Active
same,IC50,[3],Not Active
same,IC50,[4],Not Active
same,IC50,[5],Not Active
same,IC50,[6]; erythrocyte,Not Active
same,IC50,[7],Not Active
COBALTOUS CHLORIDE,IC50,[1],Not Active
same,Ki,[1],Not Active
same,IC50,[2],Not Active
same,Ki,[2],Not Active
same,IC50,[3],Not Active
same,Ki,[3],Not Active
same,IC50,[4],Not Active
same,Ki,[4],Not Active
same,IC50,[5],Not Active
same,Ki,[5],Not Active
same,IC50,[6]; erythrocyte,Not Active
same,Ki,[6]; erythrocyte,Not Active
same,IC50,[7],Not Active
same,Ki,[7],Not Active
COLISTIN,IC50,[1],Not Active
same,Ki,[1],Not Active
same,IC50,[2],Not Active
same,Ki,[2],Not Active
same,IC50,[3],Not Active
same,Ki,[3],Not Active
same,IC50,[4],Not Active
same,Ki,[4],Not Active
same,IC50,[5]; read-out: IC50,193 nM
same,Ki,[5]; read-out: Ki,168 nM
same,IC50,[6]; erythrocyte,Not Active
same,Ki,[6]; erythrocyte,Not Active
same,IC50,[7],Not Active
same,Ki,[7],Not Active
